# Data from PubChem BioAssay (NCI).
#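 How tested: cells in 96-well plates exposed to compound for 48 hours at five concentrations. TGI marks complete inhibition of growth.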
# Key:
# Assay in all cases: inhibition of tumour cell growth, NCI panel, 48 h
# [1] = tested on: PC-3 prostate
# [2] = tested on: RXF 393 renal
# [3] = tested on: SF-295 CNS
# [4] = tested on: U251 CNS
# [5] = tested on: SK-OV-3 ovarian
# [6] = tested on: CAKI-1 renal
# [7] = tested on: LOX IMVI melanoma
# [8] = tested on: OVCAR-4 ovarian
# [9] = tested on: HOP-92 NSCLC
# [10] = tested on: M14 melanoma
# [11] = tested on: MOLT-4 leukemia
# [12] = tested on: MALME-3M melanoma
# [13] = tested on: SN12C renal
# [14] = tested on: SW-620 colon
# [15] = tested on: A498 renal
# [16] = tested on: EKVX NSCLC
# [17] = tested on: NCI-H460 lung
# [18] = tested on: DU-145 prostate
# [19] = tested on: SK-MEL-5 melanoma
# [20] = tested on: UACC-257 melanoma
# [21] = tested on: MDA-MB-231 breast
# [22] = tested on: SK-MEL-2 melanoma
# [23] = tested on: OVCAR-5 ovarian
# [24] = tested on: 786-0 renal
# [25] = tested on: ACHN renal
# [26] = tested on: BT-549 breast
# [27] = tested on: A549 NSCLC
# [28] = tested on: TK-10 renal
# [29] = tested on: MDA-N
# [30] = tested on: SNB-19 CNS
# [31] = tested on: SK-MEL-28 melanoma
# [32] = tested on: K-562 leukemia
# [33] = tested on: MDA-MB-435
# [34] = tested on: HOP-62 NSCLC
# [35] = tested on: NCI/ADR-RES ovarian
# [36] = tested on: IGROV1 ovarian
# [37] = tested on: HCC-2998 colon
# [38] = tested on: HCT-116 colon
# [39] = tested on: HCT-15 colon
# [40] = tested on: NCI-H23 lung
# [41] = tested on: NCI-H226 lung
# [42] = tested on: COLO 205 colon
# [43] = tested on: UACC-62 melanoma
# [44] = tested on: HS 578T breast
# [45] = tested on: HT29 colon
# [46] = tested on: UO-31 renal
# [47] = tested on: SF-268 CNS
# [48] = tested on: KM12 colon
# [49] = tested on: OVCAR-3 ovarian
# [50] = tested on: T-47D breast
# [51] = tested on: SNB-75 CNS
# [52] = tested on: RPMI-8226 leukemia
# [53] = tested on: OVCAR-8 ovarian
# [54] = tested on: CCRF-CEM leukemia
# [55] = tested on: NCI-H522 lung
# [56] = tested on: SF-539 CNS
# [57] = tested on: MCF7 breast
# [58] = tested on: HL-60(TB) leukemia
# [59] = tested on: SR leukemia
compound,measurement,setting,value
CC(=O)O[C@H]1C[C@@H](OC(C)=O)[C@@](C)(O)[C@@H]2[C@@H](OC(C)=O)[C@@]3(O)[C@H](/C=C(/CO)[C@H]4O[C@H]4[C@@H](OC(C)=O)[C@@]12C)OC(=O)[C@@H]3C,TGI,[1],> 25 µM
same,TGI,[2],10.7 µM
same,TGI,[3],16.8 µM
same,TGI,[4],21.4 µM
same,TGI,[5],> 25 µM
same,TGI,[6],> 25 µM
same,TGI,[7],> 25 µM
same,TGI,[8],> 25 µM
same,TGI,[9],> 25 µM
same,TGI,[10],> 25 µM
same,TGI,[11],> 25 µM
same,TGI,[12],> 25 µM
same,TGI,[13],> 25 µM
same,TGI,[14],> 25 µM
same,TGI,[15],> 25 µM
same,TGI,[16],> 25 µM
same,TGI,[17],> 25 µM
same,TGI,[18],12 µM
same,TGI,[19],> 25 µM
same,TGI,[20],> 25 µM
same,TGI,[21],> 25 µM
same,TGI,[22],> 25 µM
same,TGI,[23],> 25 µM
same,TGI,[24],> 25 µM
same,TGI,[25],> 25 µM
same,TGI,[26],> 25 µM
same,TGI,[27],> 25 µM
same,TGI,[28],> 25 µM
same,TGI,[29],7.63 µM
same,TGI,[30],> 25 µM
same,TGI,[31],> 25 µM
same,TGI,[32],> 25 µM
same,TGI,[33],> 25 µM
same,TGI,[34],> 25 µM
same,TGI,[35],> 25 µM
same,TGI,[36],> 25 µM
same,TGI,[37],> 25 µM
same,TGI,[38],> 25 µM
same,TGI,[39],> 25 µM
same,TGI,[40],> 25 µM
same,TGI,[41],> 25 µM
same,TGI,[42],> 25 µM
same,TGI,[43],> 25 µM
same,TGI,[44],> 25 µM
same,TGI,[45],> 25 µM
same,TGI,[46],> 25 µM
same,TGI,[47],> 25 µM
same,TGI,[48],> 25 µM
same,TGI,[49],15.5 µM
same,TGI,[50],> 25 µM
same,TGI,[51],17.5 µM
same,TGI,[52],> 25 µM
same,TGI,[53],> 25 µM
same,TGI,[54],> 25 µM
same,TGI,[55],15.6 µM
O=[N+]([O-])/C=C(\CS(=O)(=O)c1ccccc1)c1ccc2c(c1)OCO2,TGI,[2],> 100 µM
same,TGI,[3],> 100 µM
same,TGI,[4],> 100 µM
same,TGI,[5],> 100 µM
same,TGI,[6],93.5 µM
same,TGI,[7],> 100 µM
same,TGI,[56],> 100 µM
same,TGI,[9],> 100 µM
same,TGI,[10],71.4 µM
same,TGI,[11],> 100 µM
same,TGI,[57],> 100 µM
same,TGI,[13],> 100 µM
same,TGI,[14],> 100 µM
same,TGI,[15],81.2 µM
same,TGI,[16],> 100 µM
same,TGI,[18],> 100 µM
same,TGI,[19],> 100 µM
same,TGI,[21],64.1 µM
same,TGI,[23],95.1 µM
same,TGI,[24],> 100 µM
same,TGI,[25],> 100 µM
same,TGI,[27],> 100 µM
same,TGI,[29],> 100 µM
same,TGI,[31],> 100 µM
same,TGI,[32],> 100 µM
same,TGI,[33],76.6 µM
same,TGI,[34],> 100 µM
same,TGI,[35],49.2 µM
same,TGI,[36],> 100 µM
same,TGI,[37],> 100 µM
same,TGI,[58],> 100 µM
same,TGI,[38],> 100 µM
same,TGI,[39],> 100 µM
same,TGI,[40],36.3 µM
same,TGI,[41],84.5 µM
same,TGI,[42],> 100 µM
same,TGI,[43],> 100 µM
same,TGI,[59],> 100 µM
same,TGI,[44],> 100 µM
same,TGI,[45],> 100 µM
same,TGI,[46],98.7 µM
same,TGI,[47],> 100 µM
same,TGI,[48],71.7 µM
same,TGI,[49],> 100 µM
same,TGI,[50],> 100 µM
same,TGI,[51],> 100 µM
same,TGI,[52],> 100 µM
same,TGI,[53],> 100 µM
same,TGI,[54],> 100 µM
same,TGI,[55],> 100 µM
